Source: US20130091932A1, “Process and Method for Broad Spectrum Amino Acid Challenged Urinary Organic Acids” (priority 2011, published 2013)

Experiments:
[1] = system: urinary metabolic markers; assay: 38-person study: amino acid challenge, overnight urinary organic acid profile pre vs post challenge; assay type: in vivo, human; details: in some subjects
Procedure: An initial pilot study was conducted using 3 subjects. A second study was conducted using 38 adult subjects who were chosen as having no diagnosed diseases and normal work habits. […] On two consecutive nights urine was collected for performing analysis of 46 compounds included in a profile of organic acids. On the second night, a single bolus of crystalline pure L-amino acids was consumed dissolved in water. All amino acids used were L-stereoisomers unless designated otherwise by the “D-”prefix. In the 3-person pilot, dosing included tyrosine, valine, leucine, isoleucine, histidine, and tryptophan as free-form or chloride salts at a total load of approximately 400 mg/kg body weight. For the 38-subject study, the dosing formula included a similar mixture containing alanine, valine, leucine, isoleucine, histidine, and tryptophan. Table 1 summarizes the amino acids included in the challenge formula, urinary metabolic markers affected and related nutrients or metabolic effects. The Amino acid challenge dose protocol was as follows. For 2 consecutive nights, participants collected overnight urine specimens. On the second night, before going to bed, they took approximately 400 mg/kg body weight of the challenge dose of amino acids. […]

[2] = up to 15 g, human studies; cited from earlier work

| Compound | levels of pyruvate, succinate, fumarate and malate [1] | safety of administration [2] |
| --- | --- | --- |
| C[C@H](N)C(=O)O [L-alanine] | increased levels |  |
| N[C@@H](Cc1c[nH]cn1)C(=O)O [L-histidine] |  | administered safely |
